Data from patent publication US11464770B2, “Anticancer pharmaceutical composition” (NATIONAL CANCER CENTER, priority 2016, dated 2022).
Where two headings read alike, the source gives them in different places.

How the values were obtained:
neuroblastoma cell lines = test: Cell based assay, cell viability (CellTiter-Glo), neuroblastoma cell lines; conditions: Homo sapiens; SH-SY5Y cell line
Description: (§1) Commercially available bladder cancer, prostate cancer, lung cancer, breast cancer, blood cancer, pancreatic cancer, colorectal cancer, brain cancer, neuroblastoma, melanoma, liver cancer, cervical carcinoma, ovarian cancer, renal cancer, and papilloma cell lines were each treated with trypsin-EDTA and cultured, followed by being seeded in each well of a 96 well plate. After 24 hours of treatment at constant temperature, the respective cells were treated with the candidate compound so that a final concentration became 0 to 2 μM. The treated cells were additionally cultured for 72 hours, and cell viability was measured by using an ATP detection method (CellTiter-Glo® Luminescent Cell Viability Assay, Promega).

[1] = tested on: RT4: human urinary bladder transitional cell papilloma; test: Cell based assay, cytotoxicity in RT4 papilloma cells (selectivity); conditions: Homo sapiens, RT-4; RT4 cells
Description: as §1, with “After 24 hours of treatment at constant temperature, the respective cells were treated with the candidate compound so that a final concentration became 0 to 2 μM.” left out

[2] = tested on: prostate cancer cell lines (e.g. DU145/TXR); test: Cell based assay, cell viability (CellTiter-Glo), prostate cancer cell lines; conditions: Homo sapiens, 72 hours treatment, final concentration 0 to 2 μM
Description: as §1

[3] = CWR22 cells, read-out: IC50, prostate cancer cell line CWR22
[4] = DU-145, DU145/TXR cells, read-out: IC50, prostate cancer cell line DU145/TXR
[5] = DU-145, DU145 cells, read-out: IC50, prostate cancer cell line DU145
[6] = LNcap cells, read-out: IC50, prostate cancer cell line LNcap
[7] = PC-3 cells, read-out: IC50, prostate cancer cell line PC-3

| Structure (SMILES) | IC50 (neuroblastoma cell lines) [nM] | IC50 [1] [µM] | IC50 [2, 3] [nM] | IC50 [2, 4] [nM] | IC50 [2, 5] [nM] | IC50 [2, 6] [nM] | IC50 [2, 7] [nM] |
| --- | --- | --- | --- | --- | --- | --- | --- |
| CC(=O)c1c([S+]([O-])Cc2ccc(S(F)(F)(F)(F)F)cc2)[nH]c2c(Br)ccc(Cl)c2c1=O (stereo not shown) [Compound 68, 3-acetyl-8-bromo-5-chloro-2-((4-(pentafluoro-16-sulfanyl)benzyl)sulfinyl)quinolin-4(1H)-one] | > 2000 | > 10 | 1620 | 940 | 830 | > 2000 | 1240 |
| CC(=O)c1c(SCc2cccc(C#N)c2)[nH]c2c(Br)ccc(Cl)c2c1=O [Compound 27, 3-(((3-acetyl-8-bromo-5-chloro-4-oxo-1,4-dihydroquinolin-2-yl)thio)methyl)benzonitrile] | > 2000 | > 10 | > 2000 | > 2000 | > 2000 | > 2000 | > 2000 |
| CSc1c(C(C)=O)c(=O)c2c(Cl)ccc(Br)c2n1S(=O)(=O)c1ccc(C(C)(C)C)cc1 [Compound 40, 3-acetyl-8-bromo-1-((4-(tert-butyl)phenyl)sulfonyl)-5-chloro-2-(methylthio)quinolin-4(1H)-one] | > 2000 | > 10 | > 2000 | > 2000 | > 2000 | > 2000 | > 2000 |
| CC(C)C(=O)c1c([S+]([O-])Cc2ccc(SC(F)(F)F)cc2)[nH]c2c(F)ccc(F)c2c1=O (stereo not shown) [Compound 85, 5,8-difluoro-3-isobutyryl-2-((4-((trifluoromethyl)thio)benzyl)sulfinyl)quinolin-4(1H)-one] | > 2000 | > 10 | > 2000 | > 2000 | > 2000 | > 2000 |  |
| O=C(c1c([S+]([O-])Cc2ccc(SC(F)(F)F)cc2)[nH]c2c(Br)ccc(Cl)c2c1=O)C1CC1 (stereo not shown) [Compound 101, 8-bromo-5-chloro-3-(cyclopropanecarbonyl)-2-((4-((trifluoromethyl)thio)benzyl)sulfinyl)quinolin-4(1H)-one] | 1400 | > 10 | > 2000 | 1420 | 1340 | > 2000 | > 2000 |
| CC(=O)c1c([S+]([O-])Cc2nonc2C)[nH]c2c(Br)ccc(Cl)c2c1=O (stereo not shown) [Compound 106, 3-acetyl-8-bromo-5-chloro-2-(((4-methyl-1,2,5-oxadiazol-3-yl)methyl)sulfinyl)quinolin-4(1H)-one] | 1290 | > 10 | > 2000 | > 2000 | > 2000 | > 2000 |  |
| CC(=O)c1c(SCc2ccccc2)nc2c(Br)ccc(Cl)c2c1O [Compound 52, 1-(2-(benzylthio)-8-bromo-5-chloro-4-hydroxyquinolin-3-yl)ethan-1-one] | > 2000 | > 10 | > 2000 | > 2000 | > 2000 | > 2000 | > 2000 |
| COCSc1[nH]c2c(Br)ccc(Cl)c2c(=O)c1C(C)=O [Compound 61, 3-acetyl-8-bromo-5-chloro-2-((methoxymethyl)thio)quinolin-4(1H)-one] | > 2000 | > 10 | > 2000 | > 2000 | > 2000 | > 2000 | > 2000 |
| CCS(=O)(=O)n1c([S+](C)[O-])c(C(C)=O)c(=O)c2c(Cl)ccc(Br)c21 (stereo not shown) [Compound 39, 3-acetyl-8-bromo-5-chloro-1-(ethylsulfonyl)-2-(methylsulfinyl)quinolin-4(1H)-one] | > 2000 | > 10 | > 2000 | > 2000 | > 2000 | > 2000 | > 2000 |
| CC(=O)c1c(SCc2ccccc2)n(C(=O)c2ccc(Br)cc2)c2c(Br)ccc(Cl)c2c1=O [Compound 23, 3-acetyl-2-(benzylthio)-8-bromo-1-(4-bromobenzoyl)-5-chloroquinolin-4(1H)-one] | > 2000 | > 10 | > 2000 | > 2000 | > 2000 | > 2000 | > 2000 |
| CC(=O)c1c(SCc2cc(F)cc(F)c2)[nH]c2c(Br)ccc(Cl)c2c1=O [Compound 45, 3-acetyl-8-bromo-5-chloro-2-((3,5-difluorobenzyl)thio)quinolin-4(1H)-one] | > 2000 | > 10 | > 2000 | > 2000 | > 2000 | > 2000 | > 2000 |
| COCCNc1ccc(C[S+]([O-])c2[nH]c3c(Br)ccc(Cl)c3c(=O)c2C(C)=O)cn1 (stereo not shown) [Compound 105, 3-acetyl-8-bromo-5-chloro-2-(((6-((2-methoxyethyl)amino)pyridin-3-yl)methyl)sulfinyl)quinolin-4(1H)-one] | > 2000 | > 10 | > 2000 | > 2000 | > 2000 | > 2000 |  |
| CC(=O)c1c([S+]([O-])Cc2cnc3[nH]ccc3c2)[nH]c2c(Br)ccc(Cl)c2c1=O (stereo not shown) [Compound 107, 2-(((1H-pyrrolo[2,3-b]pyridin-5-yl)methyl)sulfinyl)-3-acetyl-8-bromo-5-chloroquinolin-4(1H)-one] | > 2000 | > 10 | > 2000 | > 2000 | > 2000 | > 2000 |  |
| CC(=O)c1c(Sc2ccc(Br)cc2)[nH]c2c(Br)ccc(Cl)c2c1=O [Compound 16, 3-acetyl-8-bromo-2-((4-bromophenyl)thio)-5-chloroquinolin-4(1H)-one] | > 2000 | > 10 | > 2000 | > 2000 | > 2000 | > 2000 | > 2000 |
| COc1cccc2[nH]c(SCc3ccc(S(F)(F)(F)(F)F)cc3)c(C(C)=O)c(=O)c12 [Compound 92, 3-acetyl-5-methoxy-2-((4-(pentafluoro--sulfanyl)benzyl)thio)quinolin-4(1H)-one] | > 2000 | > 10 | > 2000 | > 2000 | > 2000 | > 2000 | > 2000 |
| CC(=O)c1c(SCc2cccc(F)c2)[nH]c2c(Br)ccc(Cl)c2c1=O [Compound 49, 3-acetyl-8-bromo-5-chloro-2-((3-fluorobenzyl)thio)quinolin-4(1H)-one] | > 2000 | > 10 | > 2000 | > 2000 | > 2000 | > 2000 | > 2000 |
| CC(=O)c1c([S+]([O-])Cc2ccc(S(F)(F)(F)(F)F)cc2)[nH]c2c(F)ccc(F)c2c1=O (stereo not shown) [Compound 80, 3-acetyl-5,8-difluoro-2-((4-(pentafluoro--sulfanyl)benzyl)sulfinyl)quinolin-4(1H)-one] | > 2000 | > 10 | > 2000 | > 2000 | > 2000 | > 2000 |  |
| CC(=O)c1c(SC(C)C)[nH]c2c(Br)ccc(Cl)c2c1=O [Compound 24, 3-acetyl-8-bromo-5-chloro-2-(isopropylthio)quinolin-4(1H)-one] | > 2000 | > 10 | > 2000 | > 2000 | > 2000 | > 2000 | > 2000 |
| O=C(c1ccccc1)c1c([S+]([O-])Cc2ccc(S(F)(F)(F)(F)F)cc2)[nH]c2c(F)ccc(F)c2c1=O (stereo not shown) [Compound 87, 3-benzoyl-5,8-difluoro-2-((4-(pentafluoro--sulfanyl)benzyl)sulfinyl)quinolin-4(1H)-one] | > 2000 | > 10 | > 2000 | > 2000 | > 2000 | > 2000 |  |
| CC(=O)c1c([S+](C)[O-])n(S(=O)(=O)C(F)(F)F)c2c(Br)ccc(Cl)c2c1=O (stereo not shown) [Compound 36, 3-acetyl-8-bromo-5-chloro-2-(methylsulfinyl)-1-((trifluoromethyl)sulfonyl)quinolin-4(1H)-one] | > 2000 | > 10 | > 2000 | > 2000 | > 2000 | > 2000 | > 2000 |
| CC(=O)c1c([S+]([O-])Cc2cccc(C#N)c2)[nH]c2c(Br)ccc(Cl)c2c1=O (stereo not shown) [Compound 28, 3-(((3-acetyl-8-bromo-5-chloro-4-oxo-1,4-dihydroquinolin-2-yl)sulfinyl)methyl)benzonitrile] | > 2000 | > 10 | 1070 | 1010 | 1280 | 1340 | 1160 |
| CC(=O)c1c([S+]([O-])c2ccccc2)[nH]c2c(Br)ccc(Cl)c2c1=O (stereo not shown) [Compound 13, 3-acetyl-8-bromo-5-chloro-2-(phenylsulfinyl)quinolin-4(1H)-one] | > 2000 | > 10 | > 2000 | > 2000 | > 2000 | > 2000 |  |
| CSc1c(C(C)=O)c(=O)c2c(Cl)ccc(Br)c2n1C(C)=O [Compound 18, 1,1′-(8-bromo-5-chloro-2-(methylthio)-4-oxoquinoline-1,3(4H)-diyl)bis(ethan-1-one)] | > 2000 | > 10 | > 2000 | > 2000 | > 2000 | > 2000 | > 2000 |
| CC(=O)c1c(SCc2ccc(Cl)cc2)[nH]c2c(Br)ccc(Cl)c2c1=O [Compound 10, 3-acetyl-8-bromo-5-chloro-2-((4-chlorobenzyl)thio)quinolin-4(1H)-one] | > 2000 | > 10 | > 2000 | > 2000 | > 2000 | > 2000 | > 2000 |
| CC(=O)c1c(S)[nH]c2c(Br)ccc(Cl)c2c1=O [Compound 62, 3-acetyl-8-bromo-5-chloro-2-mercaptoquinolin-4(1H)-one] | > 2000 | > 10 | > 2000 | > 2000 | > 2000 | > 2000 | > 2000 |
| CC(=O)c1c(SCc2cc(Cl)ccc2Cl)[nH]c2c(Br)ccc(Cl)c2c1=O [Compound 43, 3-acetyl-8-bromo-5-chloro-2-((2,5-dichlorobenzyl)thio)quinolin-4(1H)-one] | > 2000 | > 10 | > 2000 | > 2000 | > 2000 | > 2000 | > 2000 |
